According to paper PMC13489962, “Small-molecule modulation of β-arrestins” (Nature, 2026):
Entries after “also recorded” stand apart in the source; their conditions may differ.

What was measured:
[1] = tested on: β-arrestin-dependent ERK1/2 activation downstream of β2AR; experiment: Carvedilol-stimulated ERK1/2 phosphorylation in β2AR HEK293 cells; type: cell-based; conditions: 30 μM; carvedilol 10 μM, 5 min
Experimental: To evaluate the effect of small-molecule modulators on β-arrestin-dependent ERK1/2 signalling, HEK293 cells stably expressing β2AR were serum-starved for 6 h (refs. [34],[75]), then pretreated with β-arrestin modulators (30 μM) or vehicle for 20 min at 37 °C. Cells were subsequently stimulated with carvedilol (10 μM, 5 min), a β-arrestin-biased agonist known to promote ERK1/2 phosphorylation via β-arrestin scaffolding of RAF–MEK–ERK signalling components. Cells were lysed, sonicated (15 s), and centrifuged at 14,000g for 15 min at 4 °C. Equal amounts of total protein were resolved by SDS–PAGE on 4–20% Tris-Glycine gels (Thermo Fisher Scientific), transferred to nitrocellulose or PVDF membranes, and immunoblotted with anti–phospho-ERK1/2 (1:2,000; Cell Signaling) and total ERK1/2 (1:10,000; Millipore Sigma). HRP-conjugated secondary antibodies were used for detection. Protein bands were visualized using Pierce SuperSignal West Pico ECL substrate (Thermo Fisher Scientific), imaged on a ChemiDoc XRS system (Bio-Rad) and quantified by densitometry using ImageLab (Bio-Rad). Data were analysed using GraphPad Prism.

[2] = tested on: AT1R desensitization (Ca2+); experiment: Ca2+ mobilization in HEK293 cells stably expressing AT1R; type: cell-based, human; conditions: 10 μM, 30 min, ANGII 30 pM
Experimental: Intracellular (Ca^2+) release was measured using the FLIPR Calcium 6 assay kit with a FlexStation 3 microplate reader, following the manufacturer’s instructions (Molecular Devices) and as described previously. In brief, HEK293 cells stably expressing human angiotensin II type 1 receptor (AT1R), parental HEK293 cells transiently expressing AT1R, or HEK293 CRISPR–Cas9 βARR1/2-knockout cells transiently expressing AT1R were seeded in poly-D-lysine-coated, black 96-well assay plates at a density of 40,000 cells per well and incubated for 24 h. On the day of the experiment, cell plates were loaded with FLIPR Calcium 6 reagents and treated with β-arrestin small-molecule modulators (10 μM) or vehicle (DMSO) for 30 min. After establishing basal fluorescence (F0), the cells were treated with the agonist ANGII (30 pM for stably expressing AT1R or 120 pM for transiently expressing AT1R) while fluorescence intensity (F) was monitored in real time. These sub-maximal ANGII concentrations were empirically optimized to elicit moderate, temporally resolved Ca^2+ transients, allowing sufficient time for β-arrestin-mediated desensitization to develop prior to the peak response. The complete Ca^2+ transient profile was quantified by calculating the AUC over time. AUC values were normalized to the response to ANGII alone (set as 100%) to compare the effects of modulators relative to the agonist-alone control.

βARR2 = biological target: T1, βARR2 (Rattus norvegicus, UniProt P29067); experiment: ITC binding to βARR2; conditions: for stoichiometry N, βARR2 / Kd: ITC; for Kd: 25 °C, one-site model; for β-arrestin isoform preference: from ITC
T1 construct: βARR1 or βARR2 construct, with their C terminus truncated (at amino acid 393 or 394, respectively); GST (pGEX4T1) (N, cleaved yes); made in house; host or cells: E. coli BL21 (DE3) pLysS
Experimental: The expression and purification of β-arrestins have been described previously[44],[62]–[64]. In brief, E. coli BL21 (DE3) pLysS cells (New England Biolabs: C2527I) carrying pGEX4T1-Rattus norvegicus βARR1 or βARR2 construct, with their C terminus truncated (at amino acid 393 or 394, respectively), were cultured in Terrific Broth (Teknova) medium at 37 °C. After OD600 reached 0.6–0.8, the cells were induced with 0.1 mM isopropyl-β-D-thiogalactopyranoside (IPTG) at 18 °C overnight. Bacteria were collected by centrifugation (4,000 rpm), and cell pellets were resuspended in lysis buffer (20 mM HEPES, pH 8, 150 mM NaCl, 10% glycerol, 1 mM EDTA, 0.2 mM dithiothreitol (DTT), 1 mM phenylmethylsulfonyl fluoride, and 1 mM benzamidine) at 4 °C for 1 h. Cell suspensions were sonicated, centrifuged (14,000 rpm, 30 min, 4 °C), and the supernatant was loaded onto pre-equilibrated glutathione–agarose resin (GoldBio). After 3 h of binding at 4 °C, the beads were washed, and thrombin was added for overnight cleavage. The proteins were further purified by anion exchange chromatography followed by size-exclusion chromatography using a Superdex 200 Increase 10/300 GL column on an ÄKTA FPLC system (GE Healthcare). Eluted fractions were analysed by SDS–PAGE, pooled, concentrated using 30 kDa MWCO Amicon Ultra-15 Centrifugal Filter devices, flash-frozen in liquid nitrogen, and stored in aliquots at −80 °C. The same rat βARR1 constructs with mutations (L129A, L129S, L129G, P131A, P133A, E134A, D135A, K138A, C140A, Y249A, C251A, E283A, K284A and R285A) were generated and purified in a similar manner. Recombinant Gα subunits (Gαs, Gαq and Gαi) were purified as GST fusion proteins using glutathione–agarose affinity chromatography as previously described. The heterotrimeric Gs protein complex, composed of Gαs, Gβ1 and Gγ2 subunits, was expressed in Sf9 cells using the baculovirus expression system and purified as previously described. M2R expression, purification and reconstitution into high-density lipoprotein (HDL) particles were performed as previously described. ERK2, SRC, p38α and JNK3 kinases were expressed and purified using previously established protocols[6],[16]. Protein concentrations for each protein were determined by ultraviolet absorption at 280 nm and extinction coefficients estimated using the ExPASy ProtParam tool[67].
ITC measurements were performed on a MicroCal iTC200 system at 25 °C. Prior to ITC experiments, all proteins (βARR1, βARR2 or βARR1 mutants) were extensively dialysed against 20 mM HEPES (pH 7.4), 100 mM NaCl, and 3 μM TCEP. Protein concentrations were determined by spectrophotometry at 280 nm, using extinction coefficients calculated from each protein sequence via the ProtParam program. The dialysis buffer was used to dilute DMSO stock solutions of β-arrestin small-molecule modulators to their final concentrations for measurements. For each ITC experiment, β-arrestin modulators (Cmpd-5 at 350 μM, Cmpd-46 at 450 μM, and Cmpd-64 at 450 μM) were loaded into the syringe and titrated into the calorimetric cell containing βARR1, βARR1 mutants or βARR2 (at about 30–40 μM, depending on the protein and experiment). Additional ITC experiments were also performed using purified GST-fused Gα subunits (Gαs, Gαq and Gαi; about 30 μM) and Gαiβγ heterotrimer (about 30 μM). Gα subunits were prepared in the same buffer (20 mM HEPES, pH 7.4, 100 mM NaCl, 3 μM TCEP), whereas the Gαiβγ heterotrimer was maintained in buffer supplemented with 0.05% DDM and 10 μM GDP, with matched DMSO carrier conditions. Modulators (300 μM) or corresponding DMSO controls were loaded and titrated as described above. The reference cell was filled with distilled water. In all experiments, the titration sequence typically consisted of an initial 0.4 μl injection, followed by 19 injections of 2 μl each, with a 180-s interval between injections to allow thermal power to return to baseline. […]

T1 sequence (P29067 1-394): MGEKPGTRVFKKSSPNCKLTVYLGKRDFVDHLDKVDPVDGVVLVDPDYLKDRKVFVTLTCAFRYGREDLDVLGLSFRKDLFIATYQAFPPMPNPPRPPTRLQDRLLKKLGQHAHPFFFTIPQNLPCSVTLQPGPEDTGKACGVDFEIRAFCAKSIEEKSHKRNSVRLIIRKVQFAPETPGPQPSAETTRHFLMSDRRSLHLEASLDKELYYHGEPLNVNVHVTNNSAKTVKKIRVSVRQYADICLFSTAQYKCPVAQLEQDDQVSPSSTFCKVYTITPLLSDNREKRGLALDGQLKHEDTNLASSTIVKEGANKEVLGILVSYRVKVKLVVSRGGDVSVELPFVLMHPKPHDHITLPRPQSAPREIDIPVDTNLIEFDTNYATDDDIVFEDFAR

| SMILES | effect on β-arrestin-dependent ERK1/2 activation [1] | ANGII-induced Ca2+ response (AUC) relative to DMSO (set to 100%) [2] [%] | stoichiometry N, βARR2 (βARR2) | Kd (βARR2) [nM] | β-arrestin isoform preference (βARR2) |
| --- | --- | --- | --- | --- | --- |
| C=C1C(=O)[C@]23[C@H](O)[C@H]1CC[C@H]2[C@@]12CO[C@]3(O)[C@@H](O)[C@@H]1C(C)(C)CC[C@@H]2O [Cmpd-5, (1S,4aR,5S,6S,6aR,9S,11aS,11bS,14R)-1,5,6,14-tetrahydroxy−4,4-dimethyl-8-methylenedecahydro-1H-6,11b-(epoxymethano)-6a,9-methanocyclohepta[a]naphthalen-7(8H)-one] | significantly attenuated; also recorded: attenuate | 279 | 0.84 | 563 ± 45 | bound both isoforms comparably; also recorded: bound each isoform similarly |
| C=C1C(=O)C2=CC1CCC(=O)C1(C)CCC(OCC)C(C)(C)C1CC2O (centres unmarked) [Cmpd-46, (Z)-3-ethoxy-6-hydroxy-4,4,13a-trimethyl-9-methylene-1,2,3,4,4a,5,6,9,10,11,12,13a-dodecahydro-7,10-(metheno)benzo[11]annulene-8,13-dione] | significantly attenuated; also recorded: attenuate | 356 | 0.94 | 753 ± 54 | slight βarr2 preference; also recorded: modest βARR2 preference |
| C=C1C(=O)OC2CC3(C)OC3CCC(C)=CC(OC(C)=O)C12 (centres unmarked) [Cmpd-64, (Z)-4,10a-dimethyl-7-methylene-8-oxo-1a,2,3,6,6a,7,8,9a,10,10a decahydrooxireno[2’,3’:8,9]cyclodeca[1,2-b]furan-6-yl acetate] | significantly attenuated; also recorded: attenuate | 490 | 0.91 | 207 ± 54 |  |
